Results as given in ChEMBL document CHEMBL1269000, “Synthesis and biological evaluation of [D-lysine]8cyclosporin A analogs as potential anti-HCV agents” (Bioorg Med Chem Lett, 2010).

Columns and labels:
Jurkat = test: Immunosuppressive activity against human Jurkat cells assessed as inhibition of phytohemagglutinin-M/phorbol myristate acetate-induced IL2 production; format: cell-based
[1] = target: Peptidyl-prolyl cis-trans isomerase A (Homo sapiens, UniProt P62937); test: Binding affinity to cyclophilin A by ELISA
Chain of Peptidyl-prolyl cis-trans isomerase A (P62937 whole entry): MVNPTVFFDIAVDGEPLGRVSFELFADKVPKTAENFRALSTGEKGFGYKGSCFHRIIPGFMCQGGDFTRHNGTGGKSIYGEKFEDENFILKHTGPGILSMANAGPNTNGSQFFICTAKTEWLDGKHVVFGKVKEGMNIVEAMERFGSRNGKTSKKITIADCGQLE

[2] = Cytotoxicity against human HuH7 cells assessed as release of lactate dehydrogenase; format: cell-based, Huh-7; settings: for IC50: Homo sapiens, Huh-7; for IC90: human, HuH7 cells
[3] = target: Peptidyl-prolyl cis-trans isomerase B (Homo sapiens, UniProt P23284); test: Binding affinity to cyclophilin B by ELISA
Chain of Peptidyl-prolyl cis-trans isomerase B (P23284 whole entry): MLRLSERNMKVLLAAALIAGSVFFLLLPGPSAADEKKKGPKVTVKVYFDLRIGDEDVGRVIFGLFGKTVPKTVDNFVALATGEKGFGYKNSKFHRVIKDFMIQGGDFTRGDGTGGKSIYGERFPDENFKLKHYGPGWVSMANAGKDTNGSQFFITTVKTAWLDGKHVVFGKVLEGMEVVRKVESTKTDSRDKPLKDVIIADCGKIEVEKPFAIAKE

Hepatitis C virus = test: Antiviral activity against HCV after 72 hrs by stable luciferase reporter gene assay; format: functional, organism-based, Hepacivirus hominis

`C/C=C/C[C@@H](C)[C@@H](O)[C@H]1C(=O)N[C@@H](CC)C(=O)N(C)CC(=O)N(C)[C@@H](CC(C)C)C(=O)N[C@@H](C(C)C)C(=O)N(C)[C@@H](CC(C)C)C(=O)N[C@@H](C)C(=O)N[C@H](CNC(=O)OC(C)(C)C)C(=O)N(C)[C@@H](CC(C)C)C(=O)N(C)[C@@H](CC(C)C)C(=O)N(C)[C@@H](C(C)C)C(=O)N1C` gave an EC50 (Jurkat) of 50 nM, an IC50 [1] of 83.5 nM and an IC50 [2] of 1720 nM. The IC90 [2] was > 10000 nM, the IC50 [3] was 66.8 nM and the EC50 (Hepatitis C virus) was 200 nM. The EC90 (Hepatitis C virus) was 480 nM.

Compound `C/C=C/C[C@@H](C)[C@@H](O)[C@H]1C(=O)N[C@@H](CC)C(=O)N(C)CC(=O)N(C)[C@@H](CC(C)C)C(=O)N[C@@H](C(C)C)C(=O)N(C)[C@@H](CC(C)C)C(=O)N[C@@H](C)C(=O)N[C@H](CCNC(=O)C(C)(C)C)C(=O)N(C)[C@@H](CC(C)C)C(=O)N(C)[C@@H](CC(C)C)C(=O)N(C)[C@@H](C(C)C)C(=O)N1C` has an EC50 (Jurkat) of 22 nM, an IC50 [1] of 31.2 nM and an IC50 [2] of 2020 nM. The IC90 [2] was > 10000 nM, the IC50 [3] was 26.1 nM and the EC50 (Hepatitis C virus) was 140 nM. For the same compound, the EC90 (Hepatitis C virus) was 360 nM.

With `C/C=C/C[C@@H](C)[C@@H](O)[C@H]1C(=O)N[C@@H](CC)C(=O)N(C)CC(=O)N(C)[C@@H](CC(C)C)C(=O)N[C@@H](C(C)C)C(=O)N(C)[C@@H](CC(C)C)C(=O)N[C@@H](C)C(=O)N[C@H](CCCNC(=O)C(C)(C)C)C(=O)N(C)[C@@H](CC(C)C)C(=O)N(C)[C@@H](CC(C)C)C(=O)N(C)[C@@H](C(C)C)C(=O)N1C` the EC50 (Jurkat) was 21 nM, the IC50 [1] was 26.7 nM and the IC50 [2] was 2070 nM. For the same compound, the IC90 [2] was > 10000 nM, the IC50 [3] was 30.5 nM and the EC50 (Hepatitis C virus) was 120 nM. The EC90 (Hepatitis C virus) was 310 nM.

Work on `C/C=C/C[C@@H](C)[C@@H](O)[C@H]1C(=O)N[C@@H](CC)C(=O)N(C)CC(=O)N(C)[C@@H](CC(C)C)C(=O)N[C@@H](C(C)C)C(=O)N(C)[C@@H](CC(C)C)C(=O)N[C@@H](C)C(=O)N[C@H](CCCCNC(=O)C(C)(C)C)C(=O)N(C)[C@@H](CC(C)C)C(=O)N(C)[C@@H](CC(C)C)C(=O)N(C)[C@@H](C(C)C)C(=O)N1C` yielded an EC50 (Jurkat) of 121 nM, an IC50 [1] of 22.8 nM and an IC50 [2] of 2560 nM. For the same compound, the IC90 [2] was > 10000 nM, the IC50 [3] was 20.6 nM and the EC50 (Hepatitis C virus) was 160 nM. It also gave an EC90 (Hepatitis C virus) of 300 nM.

With `C/C=C/C[C@@H](C)[C@@H](O)[C@H]1C(=O)N[C@@H](CC)C(=O)N(C)CC(=O)N(C)[C@@H](CC(C)C)C(=O)N[C@@H](C(C)C)C(=O)N(C)[C@@H](CC(C)C)C(=O)N[C@@H](C)C(=O)N[C@H](CC#N)C(=O)N(C)[C@@H](CC(C)C)C(=O)N(C)[C@@H](CC(C)C)C(=O)N(C)[C@@H](C(C)C)C(=O)N1C` the EC50 (Jurkat) was 5.1 nM, the IC50 [1] was 9.12 nM and the IC50 [2] was 2820 nM. The IC90 [2] was > 10000 nM, the IC50 [3] was 9.45 nM and the EC50 (Hepatitis C virus) was 40 nM. The EC90 (Hepatitis C virus) was 140 nM.

`C/C=C/C[C@@H](C)[C@@H](O)[C@H]1C(=O)N[C@@H](CC)C(=O)N(C)CC(=O)N(C)[C@@H](CC(C)C)C(=O)N[C@@H](C(C)C)C(=O)N(C)[C@@H](CC(C)C)C(=O)N[C@@H](C)C(=O)N[C@H](CCC#N)C(=O)N(C)[C@@H](CC(C)C)C(=O)N(C)[C@@H](CC(C)C)C(=O)N(C)[C@@H](C(C)C)C(=O)N1C` showed an EC50 (Jurkat) of 12 nM, an IC50 [1] of 23 nM and an IC50 [2] of 2370 nM. The IC90 [2] was > 10000 nM, the IC50 [3] was 24.2 nM and the EC50 (Hepatitis C virus) was 100 nM. It also gave an EC90 (Hepatitis C virus) of 270 nM.

Work on `C/C=C/C[C@@H](C)[C@@H](O)[C@H]1C(=O)N[C@@H](CC)C(=O)N(C)CC(=O)N(C)[C@@H](CC(C)C)C(=O)N[C@@H](C(C)C)C(=O)N(C)[C@@H](CC(C)C)C(=O)N[C@@H](C)C(=O)N[C@H](CN)C(=O)N(C)[C@@H](CC(C)C)C(=O)N(C)[C@@H](CC(C)C)C(=O)N(C)[C@@H](C(C)C)C(=O)N1C` yielded an EC50 (Jurkat) of 13 nM, an IC50 [1] of 103 nM and an IC50 [2] of 4610 nM. The IC90 [2] was > 10000 nM, the IC50 [3] was 79.7 nM and the EC50 (Hepatitis C virus) was 300 nM. The EC90 (Hepatitis C virus) was 820 nM.

`C/C=C/C[C@@H](C)[C@@H](O)[C@H]1C(=O)N[C@@H](CC)C(=O)N(C)CC(=O)N(C)[C@@H](CC(C)C)C(=O)N[C@@H](C(C)C)C(=O)N(C)[C@@H](CC(C)C)C(=O)N[C@@H](C)C(=O)N[C@H](CCN)C(=O)N(C)[C@@H](CC(C)C)C(=O)N(C)[C@@H](CC(C)C)C(=O)N(C)[C@@H](C(C)C)C(=O)N1C` showed an EC50 (Jurkat) of 90 nM, an IC50 [1] of 218 nM and an IC50 [2] of 5300 nM. The IC90 [2] was > 10000 nM, the IC50 [3] was 151 nM and the EC50 (Hepatitis C virus) was 660 nM. It also gave an EC90 (Hepatitis C virus) of 2350 nM.

In the case of `C/C=C/C[C@@H](C)[C@@H](O)[C@H]1C(=O)N[C@@H](CC)C(=O)N(C)CC(=O)N(C)[C@@H](CC(C)C)C(=O)N[C@@H](C(C)C)C(=O)N(C)[C@@H](CC(C)C)C(=O)N[C@@H](C)C(=O)N[C@H](CCCN)C(=O)N(C)[C@@H](CC(C)C)C(=O)N(C)[C@@H](CC(C)C)C(=O)N(C)[C@@H](C(C)C)C(=O)N1C`, the EC50 (Jurkat) is reported as 111 nM, the IC50 [1] is reported as 662 nM and the IC50 [2] is reported as > 10000 nM. For the same compound, the IC90 [2] was > 10000 nM, the IC50 [3] was 1580 nM and the EC50 (Hepatitis C virus) was 1890 nM. For the same compound, the EC90 (Hepatitis C virus) was 6740 nM.
